Earlier results on two substances are cited in article PMC4838521 (ChemMedChem, 2015).

This data set deals with YopH-NT (Yersinia pestis, UniProt O68720). As to conditions: read-out: Kd for YopH-NT.

pKd: −log10 of the molar value.

YopH-NT, sequence (O68720 1-129 limits assumed): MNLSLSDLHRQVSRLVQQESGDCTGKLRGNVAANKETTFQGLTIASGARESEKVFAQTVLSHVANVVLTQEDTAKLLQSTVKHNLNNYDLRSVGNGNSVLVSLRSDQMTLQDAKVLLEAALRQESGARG

On to cyclo-DE(pY)DDPfK, for which the negative logarithm of the Kd (pKd) was approximately 4.82.

As to cyclo-DE(pY)LDPfK, the pKd is approximately 4.64.
